{"source": "patent US9943599B2", "about": "“Therapeutic applications of calcium electroporation to effectively induce tumor necrosis” (Herlev Hospital, priority 2011, dated 2018)", "key": {"[1]": {"system": "muscle below MDA-MB231 tumor", "experiment": "Normal tissue reaction, muscle below the tumor", "type": "in vivo, NMRI-Foxn1nu mice", "details": "for fraction of necrosis in muscle tissue: with electroporation, 7 days", "description": "MDA-MB231, a human breast cancer cell line was used for the in vivo experiments. The cells were tested by rapid MAP27 panel (Taconic, Hudson N.Y.) before use without signs of infection. Cells were maintained in vitro as described in Example 1. 2.5×10^6 cells/100 μl PBS were injected subcutaneously in the flank of NMRI-Foxn1nu mice (Harlan, Indianapolis, Ind.). Tumor pieces were transplanted twice from donor mice to the flank of nude mice that were 13-19 weeks old. HYPNORM™-DORMICUM™ (fentanyl/fluanisone/midazolam; VetaPharma, Leeds, U K and Roche, Basel, Switzerland) was used for anesthesia complemented with RIMADYL® (Carprofen) (Pfizer ApS, Ballerup, Denmark) as well as lidocaine (Region Hovedstadens Apotek, Herlev, Denmark) in the incision. Mice were randomised at a tumor volume above 85 mm^3 and tumors were treated with 1) injection of calcium-chloride solution and electroporation (8 pulses of 1.0 kV/cm for 100 μs and a frequency of 1 Hz) using a 6 mm plate electrode and a square wave electroporator (CLINIPORATOR®, IGEA, Modena, Italy), 2) calcium-free physiological saline injection and electroporation (same parameters as above), 3) injection of calcium-chloride, 4) calcium-free physiological saline injection, or 5) untreated but with needle inserted in the tumor without injection and with electrodes put on the tumor without pulses applied. […] Tumor volume was calculated as ab2n/6, where “a” is the largest diameter and “b” is the largest diameter perpendicular to “a”. […] Estimation of normal tissue damages was evaluated semiquantitatively on HE-sections by light[ ]microscopy (LEICA® DM 2000 light microscope, Leica Microsystems, Wetzlar, Germany).\nThe presence of necrosis in the muscle samples were scored by counting numbers of necrotic myocytes per 10 HPF (400× magnification). Necrosis was only recorded if the myocytes had lost the nucleus. Increased eosinofilic intensity in the myocyte cytoplasm with a retained nucleus was not recorded as a necrotic fiber. […]"}, "[2]": {"system": "CT26 (murine colon carcinoma) tumors", "experiment": "Calcium with sonoporation, CT26 tumor volume", "type": "in vivo, Balb/c mice", "description": "CT26, a murine colon carcinoma cell line was used for the in vivo experiments. The cells were tested by mycoplasma detection kit (Sigma, St. Louis, Mo.) before use without signs of infection. Cells were maintained in vitro in DMEM culture medium (Sigma, St. Louis, Mo.) with 10% fetal calf serum (Sigma, St. Louis, Mo.), L-glutamine, penicillin and streptomycin at 37° C. and 5% CO2. All antibiotics were removed from culture media 24 hours before tumour inoculation. 1.0×10^6 cells/200 μl serum free DMEM were injected subcutaneously in the right flank of 6-8 week old female Balb/c mice, in condition weighing 16-22 g. Mice were randomised at an average tumor size of approximately 5.0 mm in largest diameter and tumors were treated with 1) injection of isotonic calcium-chloride solution (168 mM CaCl2) and sonoporation (3.5 W/cm^2 at 1 MHz and 100% duty cycle for 2 minutes) using a SONITRON® 2000 ultrasound apparatus (Rich-Mar, Inola, Okla.), 2) sonoporation alone (same parameters as above), 3) isotonic calcium-chloride solution injection, or 4) no treatment. Tumor volume was calculated as ab^2n/6, where a is the largest diameter and b is the largest diameter perpendicular to a. […]\nThe difference in tumor volume between the different treatment groups at different time after treatment was assessed using student's t-test."}, "[3]": {"system": "H69 (human small cell lung cancer) tumors", "experiment": "Histology, fraction of necrosis in H69 tumors", "type": "in vivo, NMRI-Foxn1^nu mice", "description": "At an average tumor size of 6.1 mm (range 5.8-6.6 mm) in largest diameter, the tumors are treated with 168 mM CaCl2 injection and electroporation as described in Example 3. Tumors are removed at skin level before treatment, 2 hours, 1, 2 and 6 days after treatment, fixated in formalin (10% neutrally buffered) and paraffin embedded. Subsequently, tissue sections with a thickness of 3 μm are HE-stained according to the routine procedure of the department. The fraction of necrosis within the tumor is estimated from HE-sections by stereological point counting using a light microscope, evaluated by a pathologist, blinded with respect to treatment status.\nThe difference in fraction of necrosis is assessed using one-way ANOVA with post least-squares-means test with Bonferroni correction for multiple comparisons."}}, "data": [{"smiles": "[Ca+2].[Cl-].[Cl-]", "note": "[calcium chloride]", "values": [{"measurement": "fraction of muscle tissue affected", "setting": "[1]; after calcium electroporation of the tumor above the muscle", "result": "only a minor fraction"}, {"measurement": "fraction of necrosis in muscle tissue", "setting": "[1]; at increasing calcium concentrations", "result": "increase in the fraction of necrosis"}, {"measurement": "fraction of necrosis in muscle tissue", "setting": "[1]; at increasing injection volumes", "result": "slight increase in the fraction of necrosis"}, {"measurement": "treated tumors eliminated", "setting": "[2]; 168 mM CaCl2, half tumor volume, sonoporation 3.5 W/cm^2, 1 MHz, 2 minutes, 7/8", "result": 88, "unit": "%"}, {"measurement": "tumor volume", "setting": "[2]; isotonic calcium-chloride injection alone (control)", "result": "continues to increase"}, {"measurement": "fraction of necrosis in tumors, course", "setting": "[3]; 168 mM CaCl2 with electroporation, 2 hours to 6 days", "result": "progressive necrosis"}, {"measurement": "fraction of necrosis in tumors", "setting": "[3]; 6 days post treatment", "result": "complete"}]}]}
